Results: paper PMC11968843, “Sulphostin-inspired N-phosphonopiperidones as selective covalent DPP8 and DPP9 inhibitors” (Nature Communications, 2025)
Several values for one entry are separate records, joined by “and”; a condition that tells them apart may be missing. Equal values may be shown once. Read-outs that look alike come from different tables or passages of the source.

Columns and labels:
[1] = biological target: T1, DPP8 (Homo sapiens, UniProt Q6V1X1); experiment: biochemical; type: biochemical
T1 construct: purchased Proteros Biostructures GmbH, Germany
T1 sequence (Q6V1X1 whole entry): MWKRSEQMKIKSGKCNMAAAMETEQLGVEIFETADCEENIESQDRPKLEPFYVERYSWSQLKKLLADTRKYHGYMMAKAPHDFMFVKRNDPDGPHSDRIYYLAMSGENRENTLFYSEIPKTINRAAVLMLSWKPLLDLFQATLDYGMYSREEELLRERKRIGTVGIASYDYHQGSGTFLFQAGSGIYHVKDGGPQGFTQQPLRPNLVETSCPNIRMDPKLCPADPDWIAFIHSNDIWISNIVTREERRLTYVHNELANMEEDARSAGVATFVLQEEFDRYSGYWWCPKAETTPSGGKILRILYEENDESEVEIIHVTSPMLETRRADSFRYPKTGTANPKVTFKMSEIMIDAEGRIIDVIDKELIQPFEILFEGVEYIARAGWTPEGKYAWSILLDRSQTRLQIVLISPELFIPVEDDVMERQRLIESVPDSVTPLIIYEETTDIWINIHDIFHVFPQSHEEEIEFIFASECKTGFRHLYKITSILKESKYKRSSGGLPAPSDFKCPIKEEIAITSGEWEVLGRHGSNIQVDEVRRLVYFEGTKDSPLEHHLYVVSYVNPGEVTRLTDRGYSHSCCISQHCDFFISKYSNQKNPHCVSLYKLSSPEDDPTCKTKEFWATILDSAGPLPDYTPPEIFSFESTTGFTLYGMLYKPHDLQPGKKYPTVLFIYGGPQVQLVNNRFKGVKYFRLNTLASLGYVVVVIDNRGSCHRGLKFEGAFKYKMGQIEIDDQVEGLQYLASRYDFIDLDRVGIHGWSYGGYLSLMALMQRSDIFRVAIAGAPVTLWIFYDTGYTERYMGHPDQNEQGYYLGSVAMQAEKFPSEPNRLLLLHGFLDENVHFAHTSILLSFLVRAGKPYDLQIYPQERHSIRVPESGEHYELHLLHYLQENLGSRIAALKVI
How it was run: (§1)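 Initial velocity of AMC release from fluorogenic GP-AMC substrate read for up to 60 min at 30 °C in HEPES/KOH pH 7.3 buffer with 1 mM DTT. Enzyme (10 nM) preincubated 45 min at 30 °C with inhibitor (0–100 μM, 1% DMSO). IC50 from four-parameter variable-slope fit of triplicates.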

[2] = biological target: T2, DPP4 (Homo sapiens, UniProt P27487); experiment: biochemical; type: biochemical; details: for DPP4 activity [%]: replicates
T2 construct: purchased Proteros Biostructures GmbH, Germany
T2 sequence (P27487 whole entry): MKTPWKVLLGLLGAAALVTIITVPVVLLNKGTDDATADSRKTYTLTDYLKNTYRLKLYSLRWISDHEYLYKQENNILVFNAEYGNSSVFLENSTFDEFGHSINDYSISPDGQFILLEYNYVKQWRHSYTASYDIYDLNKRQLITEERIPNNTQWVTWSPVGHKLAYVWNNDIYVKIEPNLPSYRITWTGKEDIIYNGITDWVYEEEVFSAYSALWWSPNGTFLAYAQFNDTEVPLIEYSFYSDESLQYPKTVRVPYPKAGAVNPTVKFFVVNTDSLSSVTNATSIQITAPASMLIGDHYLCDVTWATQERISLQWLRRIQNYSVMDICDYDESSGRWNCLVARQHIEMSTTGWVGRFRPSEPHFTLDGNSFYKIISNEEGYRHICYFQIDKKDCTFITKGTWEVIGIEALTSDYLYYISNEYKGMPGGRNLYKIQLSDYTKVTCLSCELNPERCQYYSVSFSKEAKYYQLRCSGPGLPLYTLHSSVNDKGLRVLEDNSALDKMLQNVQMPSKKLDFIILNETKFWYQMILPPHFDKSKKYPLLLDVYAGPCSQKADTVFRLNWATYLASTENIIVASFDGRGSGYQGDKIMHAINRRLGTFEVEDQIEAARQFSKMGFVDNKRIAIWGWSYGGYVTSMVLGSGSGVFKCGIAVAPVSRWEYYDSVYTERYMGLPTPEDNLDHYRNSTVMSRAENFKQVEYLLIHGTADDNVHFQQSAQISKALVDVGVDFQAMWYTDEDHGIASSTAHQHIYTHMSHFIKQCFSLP
How it was run: as §1

[3] = biological target: T1, DPP8; experiment: Time-dependent DPP8 inhibition kinetics (kobs, KI, kinact, kapp); type: biochemical
How it was run: (§2)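 Enzyme (10 nM) received 250 µM GP-AMC together with serially diluted inhibitor, and fluorescence was followed for up to 120 min at 30 °C. Progress curves were fitted for kobs, and kobs versus [I] gave kinact and KI. kapp = kinact/KI; triplicates, errors are standard errors of the fit.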

[4] = biological target: T3, DPP9 (Homo sapiens, UniProt Q86TI2); experiment: Time-dependent DPP9 inhibition kinetics (kobs, KI, kinact, kapp); type: biochemical; set-up: purchased Proteros Biostructures GmbH, Germany
T3 sequence (Q86TI2 whole entry): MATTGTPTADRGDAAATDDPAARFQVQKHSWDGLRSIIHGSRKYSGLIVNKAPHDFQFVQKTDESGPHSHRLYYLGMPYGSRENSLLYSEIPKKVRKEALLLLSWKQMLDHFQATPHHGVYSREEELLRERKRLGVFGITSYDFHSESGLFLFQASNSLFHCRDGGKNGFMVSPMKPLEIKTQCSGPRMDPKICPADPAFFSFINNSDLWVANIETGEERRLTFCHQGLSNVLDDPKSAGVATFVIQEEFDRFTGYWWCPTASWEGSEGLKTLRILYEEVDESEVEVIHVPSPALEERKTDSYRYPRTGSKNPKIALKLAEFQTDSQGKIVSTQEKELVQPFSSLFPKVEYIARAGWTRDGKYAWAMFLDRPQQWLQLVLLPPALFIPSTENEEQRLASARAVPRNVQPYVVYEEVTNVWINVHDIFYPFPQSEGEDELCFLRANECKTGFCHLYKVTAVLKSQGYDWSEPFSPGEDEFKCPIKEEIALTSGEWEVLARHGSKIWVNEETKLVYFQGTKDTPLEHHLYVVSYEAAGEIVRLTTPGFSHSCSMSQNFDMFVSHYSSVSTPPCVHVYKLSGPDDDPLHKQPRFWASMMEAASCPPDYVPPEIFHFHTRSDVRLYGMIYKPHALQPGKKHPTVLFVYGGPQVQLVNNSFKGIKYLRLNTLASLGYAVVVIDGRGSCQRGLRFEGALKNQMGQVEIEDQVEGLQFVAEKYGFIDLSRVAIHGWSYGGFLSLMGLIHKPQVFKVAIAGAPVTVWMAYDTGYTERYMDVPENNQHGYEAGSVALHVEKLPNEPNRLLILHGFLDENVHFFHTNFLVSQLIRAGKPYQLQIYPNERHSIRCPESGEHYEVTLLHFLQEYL
How it was run: as §2

[5] = biological target: T4, HEK293 cell lysates (proteome-wide targets of probe 9) (Homo sapiens, UniProt P37802); experiment: Competitive ABPP / direct target identification with alkyne probe 9 in HEK293 cell lysates; type: binding, H. sapiens; details: protein TAGLN2
T4 construct: endogenous in cells; host or cells: HEK293 cell lysate
T4 sequence (P37802 whole entry): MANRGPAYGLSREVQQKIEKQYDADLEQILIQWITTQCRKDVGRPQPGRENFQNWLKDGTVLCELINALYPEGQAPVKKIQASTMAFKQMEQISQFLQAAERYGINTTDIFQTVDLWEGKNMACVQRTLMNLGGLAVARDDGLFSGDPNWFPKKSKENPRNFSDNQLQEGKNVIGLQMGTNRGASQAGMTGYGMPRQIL

[6] = biological target: T5, HEK293 cell lysates (proteome-wide targets of probe 9) (Homo sapiens, UniProt Q14974); experiment: as above; type: binding, H. sapiens; details: protein KPNB1
T5 construct: endogenous in cells; host or cells: HEK293 cell lysate
T5 sequence (Q14974 whole entry): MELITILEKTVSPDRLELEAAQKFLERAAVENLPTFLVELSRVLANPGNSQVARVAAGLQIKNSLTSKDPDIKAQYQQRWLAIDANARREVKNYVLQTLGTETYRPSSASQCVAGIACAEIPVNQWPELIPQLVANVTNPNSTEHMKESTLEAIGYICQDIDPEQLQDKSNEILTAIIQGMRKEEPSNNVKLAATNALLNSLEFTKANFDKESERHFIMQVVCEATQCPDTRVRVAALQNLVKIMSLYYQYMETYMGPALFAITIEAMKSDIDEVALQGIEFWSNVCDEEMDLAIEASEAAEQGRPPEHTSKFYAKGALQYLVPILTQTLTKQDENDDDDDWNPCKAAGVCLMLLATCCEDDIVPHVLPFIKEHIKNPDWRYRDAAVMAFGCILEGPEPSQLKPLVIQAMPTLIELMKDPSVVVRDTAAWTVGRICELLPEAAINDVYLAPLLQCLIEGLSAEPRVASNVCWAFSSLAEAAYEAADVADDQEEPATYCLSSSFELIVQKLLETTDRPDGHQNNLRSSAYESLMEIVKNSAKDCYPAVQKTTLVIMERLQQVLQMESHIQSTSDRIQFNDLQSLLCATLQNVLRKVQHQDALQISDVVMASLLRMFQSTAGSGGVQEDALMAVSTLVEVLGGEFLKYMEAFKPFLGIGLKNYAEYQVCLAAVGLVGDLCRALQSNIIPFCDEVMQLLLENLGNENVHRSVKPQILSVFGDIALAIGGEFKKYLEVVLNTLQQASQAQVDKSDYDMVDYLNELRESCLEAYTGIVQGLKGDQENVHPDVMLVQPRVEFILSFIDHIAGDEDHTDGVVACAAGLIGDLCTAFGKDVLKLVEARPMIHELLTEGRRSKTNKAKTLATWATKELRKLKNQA

[7] = biological target: T6, HEK293 cell lysates (proteome-wide targets of probe 9) (Homo sapiens, UniProt Q99832); experiment: as above; type: binding, H. sapiens; details: protein CCT7
T6 construct: endogenous in cells; host or cells: HEK293 cell lysate
T6 sequence (Q99832 whole entry): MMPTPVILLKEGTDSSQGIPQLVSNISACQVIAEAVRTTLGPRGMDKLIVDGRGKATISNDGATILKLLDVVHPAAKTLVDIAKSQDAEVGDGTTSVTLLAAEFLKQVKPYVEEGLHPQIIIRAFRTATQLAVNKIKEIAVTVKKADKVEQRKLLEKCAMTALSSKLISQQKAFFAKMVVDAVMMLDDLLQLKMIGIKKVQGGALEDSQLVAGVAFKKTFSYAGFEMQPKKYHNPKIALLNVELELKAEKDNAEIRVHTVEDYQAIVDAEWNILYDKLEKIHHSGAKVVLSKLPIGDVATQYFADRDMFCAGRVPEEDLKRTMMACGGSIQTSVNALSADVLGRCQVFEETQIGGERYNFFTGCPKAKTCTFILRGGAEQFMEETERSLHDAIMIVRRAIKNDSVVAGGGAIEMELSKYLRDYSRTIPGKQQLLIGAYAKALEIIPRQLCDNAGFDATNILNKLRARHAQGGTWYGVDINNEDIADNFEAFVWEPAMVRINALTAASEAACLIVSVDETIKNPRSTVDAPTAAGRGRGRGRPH

[8] = biological target: T7, HEK293 cell lysates (proteome-wide targets of probe 9) (Homo sapiens, UniProt Q02790); experiment: as above; type: binding, H. sapiens; details: protein FKBP4
T7 construct: endogenous in cells; host or cells: HEK293 cell lysate
T7 sequence (Q02790 whole entry): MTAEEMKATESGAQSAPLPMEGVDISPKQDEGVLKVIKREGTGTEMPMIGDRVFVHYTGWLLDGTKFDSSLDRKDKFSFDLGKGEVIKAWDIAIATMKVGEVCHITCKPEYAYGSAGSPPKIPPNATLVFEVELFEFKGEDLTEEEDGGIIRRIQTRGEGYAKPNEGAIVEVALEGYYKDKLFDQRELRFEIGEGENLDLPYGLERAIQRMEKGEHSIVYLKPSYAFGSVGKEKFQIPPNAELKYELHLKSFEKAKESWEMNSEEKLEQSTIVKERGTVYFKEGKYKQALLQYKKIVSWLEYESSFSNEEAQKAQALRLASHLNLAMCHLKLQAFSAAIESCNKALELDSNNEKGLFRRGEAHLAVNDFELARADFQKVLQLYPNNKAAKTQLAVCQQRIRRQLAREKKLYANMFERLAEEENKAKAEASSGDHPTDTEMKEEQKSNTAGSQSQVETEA

[9] = biological target: T8, HEK293 cell lysates (proteome-wide targets of probe 9) (Homo sapiens, UniProt P25398); experiment: as above; type: binding, H. sapiens; details: protein RPS12
T8 construct: endogenous in cells; host or cells: HEK293 cell lysate

[10] = biological target: T3, DPP9; experiment: biochemical; type: biochemical; set-up: purchased Proteros Biostructures GmbH, Germany; details: for DPP9 activity [%]: replicates
How it was run: as §1

[11] = biological target: T2, DPP4; type: biochemical
Procedure: To calculate the reaction rate of covalent bond formation between DPP proteins and inhibitor, kinact, KI and kapp was determined as previously described[30],[51]. […] Enzyme activity was measured for a maximum of 120 min at 30 °C, and fluorescence intensities were then plotted against time. Data was fitted to the following equation: Y=(vi/kobs)*(1−exp(−kobs*X)) using Graph-Pad Prism v10.2.3. The obtained pseudo-first-order rate constant was used to determine the maximum enzyme inhibition rate (kinact) and binding affinity (KI) by fitting the plot of kobs against inhibitor concentration to the following equation: Y=kinact/1+(KI/[I]) . The efficiency of covalent bond formation (kapp) was calculated by the ratio of kinact/KI. All measurements were performed in triplicates and error bars represent standard errors of the fit.

[12] = irreversible inhibition, fit of kobs vs inhibitor concentration

For `CCCCCc1ccc(SCCP(=O)(OCC)N2CCC[C@H](N)C2=O)cc1.O=C(O)C(F)(F)F` (some centres unmarked) [Compound 16], the IC50 ([1]; GP-AMC 250 µM, 10 nM enzyme, 45 min pre-incubation at 30 °C, read-out: IC50 DPP8) was 14 ± 1 nM, the “DPP8 activity [%]” value ([1]; c 15.625 nM, replicates) was 42.4788% and 41.4194% and 46.9279% and the “DPP8 activity [%]” value ([1]; c 25 nM, replicates) was 28.7129% and 21.6298% and 23.9147%. For the same compound, the “DPP8 activity [%]” value ([1]; c 31.25 nM, replicates) was 25% and 29.6611% and 26.8008%, the “DPP8 activity [%]” value ([1]; c 50 nM, replicates) was 11.5004% and 14.9276% and 11.5003% and the “DPP8 activity [%]” value ([1]; c 62.5 nM, replicates) was 11.5466% and 15.9958% and 12.9237%. For the same compound, the “DPP8 activity [%]” value ([1]; c 100 nM, replicates) was 5.331% and 3.808% and 3.884%, the “DPP8 activity [%]” value ([1]; c 250 nM, replicates) was 4.449% (2×) and 5.085% and the “DPP8 activity [%]” value ([1]; c 500 nM, replicates) was 3.39% and 4.449% and 3.1779%. For the same compound, the “DPP8 activity [%]” value ([1]; c 1000 nM, replicates) was 3.496% and 1.907% and 2.6483%, the “DPP8 activity [%]” value ([1]; c = 1.5625 nM inhibitor, individual replicates) was 85.6817% and 91.6222% and 85.0724% and the “DPP8 activity [%]” value ([1]; c = 3.125 nM inhibitor, individual replicates) was 102.513% and 82.8637% and 92.1555%. For the same compound, the “DPP8 activity [%]” value ([1]; c = 6.25 nM inhibitor, individual replicates) was 73.0388% and 69.9924% and 75.3236%, the “DPP8 vs. DPP9 selectivity” value ([1]; from IC50 values) was ~ 21 fold and the “selectivity of DPP8 inhibition over DPP4” value ([1]; from IC50 values) was ~ 1154 fold. For the same compound, the IC50 ([2]; GP-AMC 250 µM, 10 nM enzyme, 45 min pre-incubation at 30 °C, read-out: IC50 DPP4) was 16200 nM, the “DPP4 activity [%]” value ([2]; c 15.625 nM) was 93.2714% and 107.175% and 106.746% and the “DPP4 activity [%]” value ([2]; c 31.25 nM) was 98.0992% and 97.1086% and 101.856%. The “DPP4 activity [%]” value ([2]; c 62.5 nM) was 102.891% and 92.9769% and 100.41%, the “DPP4 activity [%]” value ([2]; c 250 nM) was 99.4378% and 98.9828% and 107.906% and the “DPP4 activity [%]” value ([2]; c 500 nM) was 104.087% and 100.437% and 100.482%. The “DPP4 activity [%]” value ([2]; c 1000 nM) was 94.3422% and 97.3674% and 95.7968%, the “DPP4 activity [%]” value ([2]; c 1562.5 nM) was 95.896% and 97.1752% and 96.7627% and the “DPP4 activity [%]” value ([2]; c 3125 nM) was 92.5869% and 89.2118% and 84.6321%. The “DPP4 activity [%]” value ([2]; c 6250 nM) was 85.4573% and 71.7259% and 79.6149%, the “DPP4 activity [%]” value ([2]; c 25000 nM) was 32.8097% and 29.6905% and 29.938% and the “DPP4 activity [%]” value ([2]; c 50000 nM) was 6.082% and 4.679% and 4.407%. For the same compound, the “DPP4 activity [%]” value ([2]; c 100000 nM) was 0.3548% and 1.386% and 0.7592%, the “kobs DPP8” value ([3]; c 0.003125 µM) was 7.927e-05 s⁻¹ and the “kobs DPP8” value ([3]; c 0.025 µM) was 0.0001486 s⁻¹. For the same compound, the “kinact DPP8” value [3, 12] was 0.00018 s⁻¹, the KI (inactivation) ([3]; irreversible inhibition, fit of kobs vs inhibitor concentration, read-out: KI DPP8) was 4e-09 ± 2e-09 M and the KI (inactivation) ([3]; source data, read-out: KI [M] best fit DPP8) was 3.53e-09 M. For the same compound, the “kobs DPP9” value ([4]; c 0.0625 µM) was 0.0001274 s⁻¹, the “kobs DPP9” value ([4]; c 0.25 µM) was 0.0002545 s⁻¹ and the “kobs DPP9” value ([4]; c 1 µM) was 0.0004155 s⁻¹. The “kinact DPP9” value [4, 12] was 0.0005 ± 0.00007 s⁻¹, the KI (inactivation) ([4]; irreversible inhibition, fit of kobs vs inhibitor concentration, read-out: KI DPP9) was 2.16e-07 ± 9e-08 M and the KI (inactivation) ([4]; source data, read-out: KI [M] best fit DPP9) was 2.16e-07 M. The “Log2-fold change (16/9)” value [5] was -0.3112, the “Log2-fold change (16/9)” value [6] was -1.716 and the “Log2-fold change (16/9)” value [7] was -1.548. For the same compound, the “Log2-fold change (16/9)” value [8] was -0.2833, the “Log2-fold change (16/9)” value [9] was 0.07588 and the IC50 ([10]; GP-AMC 250 µM, 10 nM enzyme, 45 min pre-incubation at 30 °C, read-out: IC50 DPP9) was 298 ± 21 nM. For the same compound, the “DPP9 activity [%]” value ([10]; c 15.625 nM) was 90.8881% and 85.3617% and 82.8729%, the “DPP9 activity [%]” value ([10]; c 31.25 nM) was 91.5419% and 83.379% and 89.0951% and the “DPP9 activity [%]” value ([10]; c 62.5 nM) was 100.148% and 96.4776% and 87.1335%. For the same compound, the “DPP9 activity [%]” value ([10]; c 156.25 nM) was 75.5857% and 64.6658% and 62.3826%, the “DPP9 activity [%]” value ([10]; c 250 nM) was 60.7045% and 50.2004% and 47.0576% and the “DPP9 activity [%]” value ([10]; c 312.5 nM) was 47.5512% and 45.1489% and 49.4375%. For the same compound, the “DPP9 activity [%]” value ([10]; c 500 nM) was 25.3111% and 25.3533% and 24.7205%, the “DPP9 activity [%]” value ([10]; c 625 nM) was 28.2131% and 30.5361% and 23.7856% and the “DPP9 activity [%]” value ([10]; c 1000 nM) was 10.0823% and 10.3775% and 12.2759%. For the same compound, the “DPP9 activity [%]” value ([10]; c 2500 nM) was 5.122% and 5.281% and 6.135%, the “DPP9 activity [%]” value ([10]; c 5000 nM) was 3.4348% and 3.693% and 4.11% and the “DPP9 activity [%]” value ([10]; c 10000 nM) was 2.0053% and 1.966% and 1.707%. The “kobs DPP4” value ([11]; c 250 µM) was 0.003317 s⁻¹, the “kobs DPP4” value ([11]; c 1000 µM) was 0.006797 s⁻¹ and the “kinact DPP4” value [11, 12] was 0.01027 s⁻¹. For the same compound, the “kapp DPP4” value ([11]; ratio kinact/KI) was 20 M⁻¹ s⁻¹ and the KI (inactivation) ([11]; source data, read-out: KI [M] best fit DPP4) was 0.000512 M.
